Counter-ions that a name gives are not always drawn. Like-named read-outs stand apart in the source and are kept apart here.
Legend:
[1] = Oral toxicity (mortality) in the mouse, Table 1; format: in vivo; settings: mouse, in vivo, po, Swiss mice, 14 days
Experimental: (§1) The mortality percentages caused by the products of the present invention administered orally to Swiss mice are shown in Table 1. The animals, free of specific pathological organism were housed in an air conditioned room from 24 to 48 hours before the start of the experiments. They were divided up into lots of 5 males and 5 females. With the animals unfed for 24 hours, the substances were administered intragastrically in a base of 6% gum arabic in a volume equal to 0.1 ml for 10 g of animal weight. The mortality was recorded at 14 days.
(§2) % of mortality as a function of the dose

phenylbenzoquinone (PBQ) = assay: Analgesic activity using phenylbenzoquinone (PBQ) as noxious agent, Table 2; format: in vivo, male Swiss mouse; settings: Mus musculus
Experimental: The analgesic activity was determined with the male Swiss mouse using phenylbenzoquinone (PBQ) (a variation of the method of Siegmund et al, Proc. Soc. Exp. Med., […], 95, 729-31) as the noxious agent. Twenty-eightminutes after having administered the test products in a suspension in a 6% gum base, the PBQ solution was injected. The mice were then observed ca. 5 mn. for the next five minutes.
% of analgesic activity as a function of
the dose expressed in mg/kg

[2] = tested on: trembling induced by oxotremorine; assay: Antagonism of trembling induced by oxotremorine, Table 7; format: in vivo; settings: oral, read-out: % of inhibition of trembling induced by oxotremorine
Description: (§3) The psychotropic profile of the present invention products has been characterized with the animals in numerous tests some of whose results are shown hereinafter. The products of the invention were always administered orally in 6% gum base.
(§4) Certain tests made it possible to show antidepressive activities. These are tests of antagonism to the effects of reserpine, oxotremorine (according to Everett G. M. et al, Science, 1956, 124, 79 and Levy J. et al, Therapie 1965, 20, 265) and to despair (according to Porsolt P. D. et al, Eur. J. Pharmacol., 1978, 47, 379-91).
% of inhibition of trembling induced by
oxotremorine as a function of the dose
administered expressed in mg/kg

[3] = tested on: number of escapes the animal made in 5 minutes; assay: Escape test, Table 3; format: in vivo, mouse
Description: The products of the invention were always administered orally in 6% gum base.
The notation NS signifies that the difference between the results noted for the product and the results noted for the excipient alone is not significant at the threshold 0.05 according to the Student t Test.

[4] = tested on: ptosis induced by reserpine; assay: Antagonism of ptosis induced by reserpine, Table 6; format: in vivo; settings: read-out: % of inhibition of ptosis induced by reserpine
Description: as §3, §4
% of inhibition of ptosis induced by reserpine
as a function of the dose administered orally

Swiss mice = assay: Oral toxicity (mortality) in the mouse, Table 1; format: in vivo; settings: 1000 mg/kg, 14 days, 20160 min
Experimental: as §1, §2

[5] = tested on: number of displacements of the animal; assay: Four plates test (anxiolytic activity), Table 5; format: in vivo; settings: oral, mouse
Description: as §3
A certain number of products manifest an anxiolytic activity evidenced in the test with the four plates with the mouse (Table 5).
% of increase in the number of displacements of the
animal as a function of the dose expressed in mg/kg

[6] = read-out: % of analgesic activity, 50 mg/kg, male Swiss mouse, PBQ
[7] = read-out: % of analgesic activity, 100 mg/kg, male Swiss mouse, PBQ
[8] = 5 min, oral, mouse, 5 minutes, read-out: % of activity (variation of the number of escapes)
[9] = 100 mg/kg, male Swiss mouse, PBQ, read-out: % of analgesic activity
[10] = 200 mg/kg, male Swiss mouse, PBQ, read-out: % of analgesic activity
[11] = read-out: % of analgesic activity, 200 mg/kg, male Swiss mouse, PBQ
[12] = Mus musculus, po, 5 min, read-out: % of activity (variation of the number of escapes)
[13] = 50 mg/kg, male Swiss mouse, PBQ, read-out: % of analgesic activity

Compound: Cc1ccc(C=Nc2cc3c(cc2CCN(C)C)OCO3)s1 [COR 01 169]
- mortality at 336 h ([1]; 750 mg/kg): 50%
- mortality at 336 h ([1]; 1000 mg/kg): 20%
- mortality at 336 h ([1]; 1500 mg/kg): 80%
- inhibition in vivo at 50 mg/kg (phenylbenzoquinone (PBQ); [6]): 7%
- inhibition in vivo at 100 mg/kg (phenylbenzoquinone (PBQ); [7]): 43%

Compound: CN1CCN(CCc2ccccc2N=Cc2cccnc2)CC1 [COR 01 205]
- change in vivo at 50 mg/kg [2]: -30%
- change in vivo at 100 mg/kg [2]: -30%
- change in vivo at 200 mg/kg [2]: -40%
- change in vivo at 200 mg/kg [3, 8]: -34%
- change in vivo at 50 mg/kg ([4]; 50 mg/kg, oral): -31%
- change in vivo at 100 mg/kg ([4]; 100 mg/kg, oral): -25%
- change in vivo at 200 mg/kg ([4]; 200 mg/kg, oral): -31%
- mortality at 336 h ([1]; 1000 mg/kg): 0%
- mortality at 336 h ([1]; 1500 mg/kg): 10%
- mortality at 336 h ([1]; 2000 mg/kg): 10%
- inhibition in vivo at 100 mg/kg (phenylbenzoquinone (PBQ); [9]): 10%
- inhibition in vivo at 200 mg/kg (phenylbenzoquinone (PBQ); [10]): 36%

Compound: CC(Cc1ccccc1N=Cc1cccnc1)N(C)C (centres unmarked) [COR 01 214, 2-(2-N,N-dimethylamino-2-methylethyl)-N-pyridylidene-3 aniline]
- mortality at 336 h ([1]; 1000 mg/kg): 0%
- mortality at 336 h ([1]; 1500 mg/kg): 30%
- mortality at 336 h ([1]; 2000 mg/kg): 70%
- inhibition in vivo at 100 mg/kg (phenylbenzoquinone (PBQ); [7]): 21%
- inhibition in vivo at 200 mg/kg (phenylbenzoquinone (PBQ); [11]): 30%

Compound: CC(C)(C)NCCc1cc2c(cc1N=Cc1cccnc1)OCO2 [COR 01 195]
- change in vivo at 3 mg/kg [3, 12]: 54%
- change in vivo at 5 mg/kg [3, 12]: 53%
- change in vivo at 50 mg/kg [3, 12]: 19%
- change in vivo at 100 mg/kg [3, 12]: 28%
- change in vivo at 50 mg/kg ([4]; po): -22%
- change in vivo at 100 mg/kg ([4]; po): -22%
- mortality at 336 h ([1]; 1000 mg/kg): 0%
- mortality at 336 h ([1]; 1500 mg/kg): 20%
- mortality at 336 h ([1]; 2000 mg/kg): 30%
- inhibition in vivo at 100 mg/kg (phenylbenzoquinone (PBQ); [7]): 24%
- inhibition in vivo at 200 mg/kg (phenylbenzoquinone (PBQ); [11]): 31%

Compound: CN(C)CCc1cc2c(cc1N=Cc1ccccc1C(=O)O)OCO2 [COR 01 142, N-6-(2-N,N-dimethylaminoethyl)-1,3-benzodioxol-5-yl-2-formimidoylbenzoic acid, internal salt]
- mortality at 336 h ([1]; 1000 mg/kg): 0%
- mortality at 336 h ([1]; 2000 mg/kg): 50%
- inhibition in vivo at 50 mg/kg (phenylbenzoquinone (PBQ); [13]): 22%
- inhibition in vivo at 100 mg/kg (phenylbenzoquinone (PBQ); [9]): 20%
- inhibition in vivo at 200 mg/kg (phenylbenzoquinone (PBQ); [10]): 10%

Compound: C(=Nc1cc2c(cc1CCN1CCCC1)OCO2)c1cccnc1 [COR 01 186]
- mortality at 336 h ([1]; 750 mg/kg): 0%
- mortality at 336 h ([1]; 1500 mg/kg): 50%
- % of mortality (Swiss mice): 40%

Compound: CN(C)CCc1cc2c(cc1N=Cc1ccc(Br)s1)OCO2 [COR 01 181]
- mortality at 336 h ([1]; 250 mg/kg): 0%
- mortality at 336 h ([1]; 500 mg/kg): 30%
- inhibition in vivo at 50 mg/kg (phenylbenzoquinone (PBQ); [6]): 25%
- inhibition in vivo at 100 mg/kg (phenylbenzoquinone (PBQ); [7]): 42%

Compound: C(=Nc1cc2c(cc1CCN1CCOCC1)OCO2)c1cccs1 [COR 01 180]
- change in vivo at 50 mg/kg [2]: -22%
- change in vivo at 100 mg/kg [2]: -44%
- change in vivo at 200 mg/kg [2]: -44%
- change in vivo at 50 mg/kg ([3]; 5 min, 50 mg/kg, oral, mouse, 5 minutes, read-out: % of activity (variation of the number of escapes)): -21%
- change in vivo at 100 mg/kg ([3]; 5 min, 100 mg/kg, oral, mouse, 5 minutes, read-out: % of activity (variation of the number of escapes)): -37%
- change in vivo at 200 mg/kg [3, 8]: -75%
- change in vivo at 2.5 mg/kg ([4]; 2.5 mg/kg, oral): -18%
- change in vivo at 5 mg/kg ([4]; 5 mg/kg, oral): -34%
- change in vivo at 10 mg/kg ([4]; 10 mg/kg, oral): -26%
- change in vivo at 25 mg/kg ([4]; 25 mg/kg, oral): -20%
- mortality at 336 h ([1]; 500 mg/kg): 0%
- mortality at 336 h ([1]; 1000 mg/kg): 70%
- inhibition in vivo at 50 mg/kg (phenylbenzoquinone (PBQ); [13]): 18%
- inhibition in vivo at 100 mg/kg (phenylbenzoquinone (PBQ); [9]): 26%
- inhibition in vivo at 200 mg/kg (phenylbenzoquinone (PBQ); [10]): 34%
- % of increase in the number of displacements of the animal ([5]; 25 mg/kg): +69%
- % of increase in the number of displacements of the animal ([5]; 50 mg/kg): +88%
- % of increase in the number of displacements of the animal ([5]; 75 mg/kg): +35%

Compound: CN(C)CCc1cc2c(cc1N=Cc1ccc(Cl)c(Cl)c1)OCO2 [COR 01 207]
- mortality at 336 h ([1]; 750 mg/kg): 0%
- mortality at 336 h ([1]; 1000 mg/kg): 20%
- mortality at 336 h ([1]; 1500 mg/kg): 20%
- mortality at 336 h ([1]; 2000 mg/kg): 40%

Compound: 2-(2-N,N-dimethylamino-1-methylethyl)-N-pyridylidene-3 aniline [COR 01 213]
- % of activity (variation of the number of escapes) ([3]; 100 mg/kg, oral, mouse, 5 minutes): -20%

— patent US4333930A, “Orthoarylideneaminophenethylamines and pharmaceutical compositions” (priority 1980, dated 1982)
